Structures can show the parent of a compound that is named as a salt. Where two headings read alike, the source gives them in different places.
Legend:
HDACs 4 to 8 = settings: read-out: HDACs 4 to 8 IC50; Kalita et al. 2005; cited from earlier work
HDAC11 = target: T1, HDAC11 (Homo sapiens, UniProt Q96DB2); settings: Kalita et al. 2005; one range for HDAC1, 2, 3 and 11; cited from earlier work
T1 sequence (Q96DB2 1-347): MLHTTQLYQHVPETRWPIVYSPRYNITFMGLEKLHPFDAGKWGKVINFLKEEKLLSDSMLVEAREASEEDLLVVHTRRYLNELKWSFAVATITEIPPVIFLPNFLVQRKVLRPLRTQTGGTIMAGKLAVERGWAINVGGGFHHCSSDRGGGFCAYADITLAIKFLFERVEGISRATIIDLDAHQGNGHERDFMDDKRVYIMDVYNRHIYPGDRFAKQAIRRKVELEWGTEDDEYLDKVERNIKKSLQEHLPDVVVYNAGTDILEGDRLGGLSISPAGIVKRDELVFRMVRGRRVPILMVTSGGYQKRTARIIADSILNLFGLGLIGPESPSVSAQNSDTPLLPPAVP

[1] = test system: HeLa cervical carcinoma cell line; assay: Cellular cytotoxicity assay (Alamar Blue), HeLa; assay type: cell-based; settings: Homo sapiens, 72 h
HER2 = target: T2, HER2 (Homo sapiens, UniProt P04626); assay: Biochemical flash-plate based kinase assay, HER2; settings: only a range over the listed compounds is given; read-out: HER2 inhibition IC50
T2 construct: HER2 c-terminal kinase domain; made in house
Description: Active kinase proteins were either obtained from commercial suppliers (Abl, PDGF-Rβ ProQinase, Freiburg/Germany; AblT^315I: Millipore/Upstate, Billerica/USA; PKA: InvitroGen/Panvera, Carlsbad/USA) or prepared in-house (KDR, c-terminal kinase domain AA790-1356, HER2 c-terminal kinase domain, EGFR/HER1 C-terminal kinase domain). As substrates, poly-AGKY for Abl, AblT^315I and PDGF-Rβ (#P-1152 Sigma, Munich/Germany), poly-GluTyr for KDR, HER2 and EGFR/HER1 (#P-0275, Sigma, Munich/Germany) or a PKA substrate peptide for PKA (#12-394, Millipore/Upstate, Billerica/USA) were used. Into each well of a 96-well flashplate (#SMP-200 in the case of Abl, Abl T^315I, PDGF-Rβ, EGFR, HER2 and KDR, #SMP-103 in the case of PKA; Perkin Elmer, Waltham/USA) kinase protein was diluted into kinase assay buffer (50 mM HEPES pH 7.5, 3 mM MgCl2, 3 mM MnCl2, 1 mM DTT, 3 μM sodium orthovanadate, 5 μg/ml PEG 8000) containing the appropriate substrate (final volume 89 μl). DMSO vehicle or compounds are added as 1 μl/well prior to the initiation of the kinase reaction by 10 μl 1 mM [^33P]-γATP (4×10^5 cpm). […] Plates were washed three times with 0.9% w/v NaCl and quantitated by liquid scintillation counting.

[2] = target: T3, recombinant HDAC1 isolated from HEK293 cells with heterologous HDAC1 expression (Homo sapiens, UniProt Q13547); assay: Fluorimetric rHDAC1 activity assay; assay type: biochemical; settings: only a range of IC50 over the compounds given; read-out: rHDAC1 inhibitory activity IC50
T3 construct: made in house

Protein kinase A (PKA) = target: T4, Protein kinase A (PKA) (Homo sapiens, UniProt P17612); assay: Biochemical flash-plate based kinase assay, PKA
T4 construct: purchased InvitroGen/Panvera, Carlsbad/USA
Description: Active kinase proteins were either obtained from commercial suppliers (Abl, PDGF-Rβ ProQinase, Freiburg/Germany; AblT^315I: Millipore/Upstate, Billerica/USA; PKA: InvitroGen/Panvera, Carlsbad/USA) or prepared in-house (KDR, c-terminal kinase domain AA790-1356, HER2 c-terminal kinase domain, EGFR/HER1 C-terminal kinase domain). As substrates, poly-AGKY for Abl, AblT^315I and PDGF-Rβ (#P-1152 Sigma, Munich/Germany), poly-GluTyr for KDR, HER2 and EGFR/HER1 (#P-0275, Sigma, Munich/Germany) or a PKA substrate peptide for PKA (#12-394, Millipore/Upstate, Billerica/USA) were used. Into each well of a 96-well flashplate (#SMP-200 in the case of Abl, Abl T^315I, PDGF-Rβ, EGFR, HER2 and KDR, #SMP-103 in the case of PKA; Perkin Elmer, Waltham/USA) kinase protein was diluted into kinase assay buffer (50 mM HEPES pH 7.5, 3 mM MgCl2, 3 mM MnCl2, 1 mM DTT, 3 μM sodium orthovanadate, 5 μg/ml PEG 8000) containing the appropriate substrate (final volume 89 μl). DMSO vehicle or compounds are added as 1 μl/well prior to the initiation of the kinase reaction by 10 μl 1 mM [^33P]-γATP (4×10^5 cpm). Reactions were allowed to proceed for a time predetermined to be linear on a time versus phosphorylation plot (30 min for PKA, otherwise 80 min) and terminated with the addition of an equal volume of phosphoric acid (2% H3PO4 for 5 minutes). Plates were washed three times with 0.9% w/v NaCl and quantitated by liquid scintillation counting.

[3] = test system: histone H3 hyperacetylation in HeLa cervical carcinoma cells; assay: Cellular histone H3 hyperacetylation assay; assay type: cell-based; settings: Homo sapiens, 24 h, only a range over the listed compounds is given, read-out: Induction of histone H3 hyperacetylation in HeLa cervical carcinoma cells EC50
Description: To assess the cellular efficacy of a histone deacetylase inhibitor in vitro, an assay was set up in black clear-bottom 96-well plates and optimized for use on the Cellomics “ArrayScan II” platform for a quantitative calculation of histone acetylation. The protocol uses a polyclonal rabbit antibody, specifically binding to acetylated lysine 1-20 of human histone H3 on fixed cells with an Alexa Fluor 488 labeled goat anti rabbit-IgG used for counterstaining (Beckers et al. Int J. Cancer 121, 1138, 2007).
5×10^3 HeLa cervical carcinoma cells/well (ATCC. CCL-2) in 200 μl Dulbecco rs modified Eagle's medium (DMEM) containing 10% fetal calf serum are seeded at day 1 in Packard view plates and incubated for 24 h under standard cell culture conditions. On day 2, 1 μl test compound (200× final concentration) is added and incubation continued for further 24 h. On day 3, the culture medium is discarded and attached cells fixed for 15 min at room temperature by addition of 100 μl fixation buffer (3.7% v:v formaldehyde in phosphate buffered saline/PBS). After discarding the fixation buffer and one wash with blocking solution (1% BSA, 0.3% Tween 20 in PBS), cells are permeabilized at room temperature by addition of 100 μl/well permeabilization buffer (30.8 mM NaCl, 0.54 mM Na2HPO4, 0.31 mM KH2PO4, 0.1% v:v Triton X-100) for 15 min at room temperature. After discarding the permeabilization buffer and washing twice with 100 μl/well blocking solution at room temperature, the 1st antibody (anti-K^1-20 histone H3 antibody, Calbiochem No. 382158) in blocking solution (50 μl/well) is added. After incubation for 1 h at room temperature, the wells are washed twice at room temperature with 100 μl/well blocking solution before addition of the 2nd antibody (goat-anti-rabbit Alexa Fluor 488; MoBiTec No. A-11008) in blocking solution (50 μl/well). After further incubation for 1 h at room temperature, wells are washed twice with 100 μl/well blocking solution at room temperature. Finally, 100 μl/well PBS are added and image analysis performed on the Cellomics “ArrayScan II” platform. For EC50 determination, the percentage of positive cells showing nuclear fluorescence is determined and EC50 calculation done from concentration-effect curves by means of non-linear regression. For calibration, a positive (reference HDAC inhibitors like SAHA or NVP LBH-589) and a negative control were included.

A549 NSCLC cell line = assay: Cellular cytotoxicity assay (Alamar Blue), A549; assay type: cell-based; settings: Homo sapiens, A549; 72 h; only a range over the listed compounds is given; read-out: Cytotoxicity towards A549 NSCLC cell line IC50
[4] = test system: cellular HDAC activity in HeLa cells; assay: Quantification of cellular HDAC activity in HeLa cells; assay type: cell-based, human; settings: 4 h compound incubation; for lists of compounds only a range is printed; read-out: Inhibition of cellular HDAC activity in HeLa cells IC50
Experimental: To assess the cellular potency of histone deacetylase inhibitors, an assay recently described was applied (Ciossek et al. Anal Biochem e-pub 2007). 5×10^3 HeLa cervical carcinoma cells/well (ATCC CCL-2) were cultivated in 200 μl/well DMEM (containing 10% FCS) in cell culture microliter plates (white, 96 well flat bottom plates suitable for fluorimetric analysis; Costar Art. No. 3917). Cells were cultivated for 24 h under standard cell culture conditions at 37° C. and 5% CO2 to allow cell attachment and proliferation. The compounds of the present invention were added at different concentrations (dilutions done in DMSO) and incubation continued for 4 h at 37° C. under cell culture conditions (each concentration was tested in quadruplicate). […] After discarding the culture medium, 100 μl/well substrate solution (200 μM Boc-K(Ac)-AMC in DMEM (containing 10% FCS), stock solution diluted 1:250) were added and incubation continued at 37° C. under cell culture conditions for further 3 h. […] After incubation for 5 min at 37° C., cells were lysed by addition of 100 μl/well lysis buffer (50 mM TRIS pH 8, 137 mM NaCl, 2.7 mM KCl, 1 mM MgCl2, 1 vol % NP-40) and further incubation for 20 min at 37° C. Finally, the amount of AMC was quantified using the Wallac Victor device (extinction λ=355 nm, emission at λ=460 inn).

[5] = test system: SKOV3 ovarian carcinoma cell line; assay: Cellular cytotoxicity assay (Alamar Blue), SKOV3; assay type: cell-based; settings: Homo sapiens, SK-OV-3; 72 h; only a range over the listed compounds is given; read-out: Cytotoxicity towards SKOV3 cell line IC50
[6] = test system: Cal27 head and neck cancer cell line; assay: Cellular cytotoxicity assay (Alamar Blue), Cal27; assay type: cell-based; settings: Homo sapiens, CAL-27; 72 h; only a range over the listed compounds is given; read-out: Cytotoxicity towards Cal27 cell line IC50
Experimental: The anti-proliferative activity of the chimeric HDAC and protein kinase inhibitory chimeric compounds of the present invention was evaluated using HeLa cervical carcinoma, A549 NSCLC, SKOV3 ovarian carcinoma, Cal27 head and neck cancer, K562 chronic myeloid leukemia (CML) and EOL1 acute hypereosinophilic myeloid leukemia, cell lines. For quantification of cellular proliferation/living cells the Alamar Blue (Resazurin) cell viability assay was applied (O'Brien et al. Eur Biochem. 267, 5421-5426, 2000). In this assay Resazurin is reduced to the fluorescent resorufin by cellular dehydrogenase activity, correlating with viable, proliferating cells. The examples were dissolved as 20 mM solutions in dimethylsulfoxide (DMSO) and subsequently diluted in semi-logarithmic steps. Cell lines were seeded at respective density into 96 well flat bottom plates in a volume of 200 μl per well. 24 h after seeding 1 μl each of the compound dilutions were added into each well of the 96 well plate. Each compound dilution was tested as quadruplicates. Wells containing untreated control cells were filled with […] DMEM medium containing 0.5% v:v DMSO. The cells were then incubated with the substances for 72 h at 37° C. in a humidified atmosphere containing 5% carbon dioxide. To determine the viability of the cells, 20 μl of an Resazurin solution (Sigma; 90 mg/l) were added. After 4 h incubation at 37° C. the fluorescence was measured at an extinction of 544 nm and an emission of 590 nm. For the calculation of the cell viability the emission value from untreated cells was set as 100% viability and the emission rates of treated cells were set in relation to the values of untreated cells. Viabilities were expressed as % values. The corresponding IC50 values of the compounds for cytotoxic activity are determined from the concentration-effect curves by means of non-linear regression.

T3 sequence (Q13547 whole entry): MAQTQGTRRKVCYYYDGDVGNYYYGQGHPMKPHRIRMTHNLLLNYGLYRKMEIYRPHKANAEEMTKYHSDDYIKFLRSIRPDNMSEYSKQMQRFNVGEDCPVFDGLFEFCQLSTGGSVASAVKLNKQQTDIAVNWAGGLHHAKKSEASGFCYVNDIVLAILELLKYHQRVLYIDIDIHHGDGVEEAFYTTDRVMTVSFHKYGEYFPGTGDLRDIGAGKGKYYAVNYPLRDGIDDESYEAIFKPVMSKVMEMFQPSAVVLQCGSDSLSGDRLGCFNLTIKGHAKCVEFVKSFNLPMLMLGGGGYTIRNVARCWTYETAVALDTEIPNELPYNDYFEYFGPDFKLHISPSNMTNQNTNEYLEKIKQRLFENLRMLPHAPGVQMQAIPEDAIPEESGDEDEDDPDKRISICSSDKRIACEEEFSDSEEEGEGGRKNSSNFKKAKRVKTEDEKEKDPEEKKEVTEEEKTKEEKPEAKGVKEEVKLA
T2 sequence (P04626 720-987 limits assumed): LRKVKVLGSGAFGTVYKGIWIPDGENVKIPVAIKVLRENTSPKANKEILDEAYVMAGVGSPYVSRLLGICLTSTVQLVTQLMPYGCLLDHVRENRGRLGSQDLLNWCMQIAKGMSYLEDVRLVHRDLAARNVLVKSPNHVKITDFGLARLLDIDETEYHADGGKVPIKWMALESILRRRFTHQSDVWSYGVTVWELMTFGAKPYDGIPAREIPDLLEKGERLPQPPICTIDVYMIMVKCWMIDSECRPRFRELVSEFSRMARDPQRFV

SMILES | IC50 (HDACs 4 to 8) | IC50 (HDAC11) | IC50 ([1]; read-out: Cytotoxicity towards HeLa cervical cell line IC50 (M)) | IC50 (HER2) | IC50 [2] | IC50 (Protein kinase A (PKA)) | EC50 [3] | IC50 ([1]; only a range over the listed compounds is given, read-out: Cytotoxicity towards HeLa cervical cell line IC50) | IC50 (A549 NSCLC cell line) | IC50 [4] | IC50 [5] | IC50 [6]
Nc1ccccc1NC(=O)c1ccc(CNc2nccc(-c3cccnc3)n2)cc1 [MGCD0103] | > 20 µM | 0.1 to 2 µM | – | – | – | – | – | – | – | – | – | –
O=C(NO)c1ccc(-c2ccc3ncnc(Nc4ccc(OCc5cccc(F)c5)c(Cl)c4)c3c2)o1 [[6], 5-{4-[3-Chloro-4-(3-fluorobenzyloxy)phenylamino]-quinazolin-6-yl}furan-2-carboxylic acid hydroxyamide hydrochloride monohydrate] | – | – | 9.1e-07 to 9.4e-06 M | 0.002 to 0.74 µM | ≥ 0.0353 µM | 85 µM | ≥ 3.65 µM | – | – | – | – | –
O=C(/C=C/c1cccc(-c2ccc3ncnc(Nc4ccc(OCc5cccc(F)c5)c(Cl)c4)c3c2)c1)NO [[9], E-3-(3-(4-(3-chloro-4-(3-fluorobenzyloxy)phenylamino)quinazolin-6-yl)phenyl)-N-hydroxy-acrylamide] | – | – | – | – | ≥ 0.0353 µM | – | ≥ 3.65 µM | 9.1e-07 to 9.4e-06 M | ≥ 1.1 µM | 0.43 µM | ≥ 1 µM | ≥ 0.28 µM

Reference: patent publication US20110065734A1, “NOVEL BIFUNCTIONAL COMPOUNDS WHICH INHIBIT PROTEIN KINASES AND HISTONE DEACETYLASES” (4SC AG, priority 2007, published 2011)
